This note sets out measurements from ChEMBL document CHEMBL1133233, “The design and synthesis of thrombin inhibitors: the introduction of in vivo efficacy and oral bioavailability into benzthiazolylalanine inhibitors” (Bioorg Med Chem Lett, 2000).

The target of data set [1] is Prothrombin (Homo sapiens, UniProt P00734). Put plainly: Evaluated for the binding affinity against thrombin.
Data set [2] can be described thus: Effectiveness to inhibit coagulation in plasma measured as activated partial thromboplastin time (APTT). It counts as functional.
A short description of data set [3]: Bioavailability in rat (intraduodenal administration). It counts as ADME, organism-based. The following applies: in vivo.
A short description of data set [4]: Oral bioavailability in rat. It counts as ADME, organism-based. The conditions noted are these: in vivo.
The target in data set [5] is Serine protease 1 (Homo sapiens, UniProt P07477). Put plainly: Inhibitory activity against trypsin.
Serine protease 1, sequence (P07477 whole entry): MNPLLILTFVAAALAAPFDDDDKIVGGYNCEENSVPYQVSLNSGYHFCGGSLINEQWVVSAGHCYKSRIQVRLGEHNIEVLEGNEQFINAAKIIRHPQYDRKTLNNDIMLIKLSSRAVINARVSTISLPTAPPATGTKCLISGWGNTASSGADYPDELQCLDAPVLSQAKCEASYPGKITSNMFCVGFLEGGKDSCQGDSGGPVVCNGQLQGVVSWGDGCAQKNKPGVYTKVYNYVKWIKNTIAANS
Data set [6] has as its target Coagulation factor X (Homo sapiens, UniProt P00742). Put plainly: Inhibitory activity against Coagulation factor X.
Data set [7] can be described thus: Aqueous solubility at pH 7. It counts as physicochemical.
Data set [8] deals with Plasminogen (Homo sapiens, UniProt P00747). Put plainly: Inhibitory activity against plasmin.
Plasminogen, sequence (P00747 97-580 limits assumed): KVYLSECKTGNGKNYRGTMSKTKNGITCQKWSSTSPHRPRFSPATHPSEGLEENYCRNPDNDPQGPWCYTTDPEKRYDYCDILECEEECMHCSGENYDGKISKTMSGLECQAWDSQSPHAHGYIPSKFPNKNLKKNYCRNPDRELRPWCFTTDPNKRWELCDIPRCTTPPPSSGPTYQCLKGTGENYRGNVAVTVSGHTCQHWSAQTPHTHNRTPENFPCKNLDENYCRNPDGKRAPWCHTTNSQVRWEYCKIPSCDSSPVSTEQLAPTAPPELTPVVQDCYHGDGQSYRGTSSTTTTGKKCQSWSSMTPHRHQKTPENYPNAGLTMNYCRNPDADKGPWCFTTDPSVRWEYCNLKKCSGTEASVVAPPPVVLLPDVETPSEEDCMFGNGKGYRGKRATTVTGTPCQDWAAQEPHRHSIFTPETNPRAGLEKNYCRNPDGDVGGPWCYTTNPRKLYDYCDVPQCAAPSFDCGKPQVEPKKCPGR
Plasminogen, sequence (P00747 581-810 limits assumed): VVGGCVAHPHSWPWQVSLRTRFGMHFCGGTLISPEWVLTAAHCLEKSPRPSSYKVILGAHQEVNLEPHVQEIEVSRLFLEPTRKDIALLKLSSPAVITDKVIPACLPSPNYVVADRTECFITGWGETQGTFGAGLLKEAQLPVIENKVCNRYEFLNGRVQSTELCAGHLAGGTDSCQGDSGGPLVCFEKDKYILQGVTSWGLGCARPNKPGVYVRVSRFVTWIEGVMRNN
Data set [9] can be described thus: Inhibitory activity against TF/VIIa.
Data set [10] can be described thus: Aqueous solubility at pH 2. Type of data set: physicochemical.
The test system of data set [11] is Rattus norvegicus. Put plainly: Inhibition of fibrin deposition was determined after 2 hr on arterial thrombosis in the rat at 20 mg/kg oral administration using an acute model of injury induced thrombus formation. Type of data set: functional.
Data set [12] concerns Rattus norvegicus. Kind of data set: Inhibition of platelet deposition was determined on arterial thrombosis in the rat at 10 mg/kg oral administration using an acute model of injury induced thrombus formation. Type of data set: functional.
The subject of data set [13] is Rattus norvegicus. Kind of data set: Inhibition of platelet deposition was determined on arterial thrombosis in the rat at 20 mg/kg oral administration using an acute model of injury induced thrombus formation. It counts as functional. The following applies: read-out: Inhibition.
Data set [14] has as its system Rattus norvegicus. Kind of data set: Inhibition of fibrin deposition was determined after 1 hr on arterial thrombosis in the rat at 20 mg/kg oral administration using an acute model of injury induced thrombus formation. Type of data set: functional.

pKi: −log10 of the molar value. Values after ≈ are worked out from the molar mass of the structure shown.

Coagulation factor X, sequence (P00742 41-179 limits assumed): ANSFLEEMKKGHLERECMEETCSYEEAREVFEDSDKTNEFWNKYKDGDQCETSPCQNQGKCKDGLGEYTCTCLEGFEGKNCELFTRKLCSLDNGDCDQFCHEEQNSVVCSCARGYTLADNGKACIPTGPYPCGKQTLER
Coagulation factor X, sequence (P00742 235-488 limits assumed): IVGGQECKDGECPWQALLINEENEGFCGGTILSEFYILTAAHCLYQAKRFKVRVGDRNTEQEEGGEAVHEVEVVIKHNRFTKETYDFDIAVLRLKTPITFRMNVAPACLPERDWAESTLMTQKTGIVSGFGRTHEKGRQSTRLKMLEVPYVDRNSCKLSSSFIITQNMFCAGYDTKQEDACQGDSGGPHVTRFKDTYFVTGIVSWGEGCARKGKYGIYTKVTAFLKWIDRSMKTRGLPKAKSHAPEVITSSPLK

In [1], `CC1(C)CNc2c(cc(CCCO)cc2S(=O)(=O)N[C@@H](Cc2nc3ccccc3s2)C(=O)N2CCC(CCF)CC2)C1` showed a negative-log Ki (pKi) of 6.92. Besides, the APTT in data set [2] was 19 µM.
In the case of `CC1(C)CNc2c(cc(CCC(=O)N3CCN(CC(=O)N4CCOCC4)CC3)cc2S(=O)(=O)N[C@@H](Cc2nc3ccccc3s2)C(=O)N2CCC(CCF)CC2)C1` [listing 1 of 2 here], the negative-log Ki (pKi) is 7.24 in data set [1]; 3.82 in data set [5]; at most 3.70 in data set [6]; 3.67 in [8]; 1.94 in [9]. Besides, the bioavailability in data set [3] came to 38%; in data set [4], 28%. For the same molecule, in data set [2], the APTT stood at 7 µM. Moreover, the results for the solubility in data set [7] and in data set [10] were 130 µg/mL (≈ 157 µM) and 15000 µg/mL (≈ 18200 µM), respectively.
The molecule `CC1(C)CNc2c(cc(CO)cc2S(=O)(=O)N[C@@H](Cc2nc3ccccc3s2)C(=O)N2CCC(CCF)CC2)C1` gave a pKi in data set [1] of 7.19. This molecule also registered an APTT in [2] of 16.8 µM.
In data set [1], `CC1(C)CNc2c(cc(C(=O)O)cc2S(=O)(=O)N[C@@H](Cc2nc3ccccc3s2)C(=O)N2CCC(CCF)CC2)C1` showed a pKi of 6.44. Moreover, in [2], the APTT turned out to be 13 µM.
Regarding `CC1(C)CNc2c(cc(CCCC(=O)O)cc2S(=O)(=O)N[C@@H](Cc2nc3ccccc3s2)C(=O)N2CCC(CCF)CC2)C1`, the pKi in [1] is 7.03. The molecule also came in with an APTT in [2] of 16.6 µM.
In the same order, the values of `CC1(C)CNc2c(cc(CCC(=O)N3CCN(Cc4ccncc4)CC3)cc2S(=O)(=O)N[C@@H](Cc2nc3ccccc3s2)C(=O)N2CCC(CCF)CC2)C1` are 7.57 and 9.7 µM.
As for `CC1(C)CNc2c(cc(CC(=O)O)cc2S(=O)(=O)N[C@@H](Cc2nc3ccccc3s2)C(=O)N2CCC(CCF)CC2)C1`, the pKi in data set [1] was 6.30. In data set [2], the APTT came to 14.9 µM.
In data set [1], `CC1(C)CNc2c(cc(CCO)cc2S(=O)(=O)N[C@@H](Cc2nc3ccccc3s2)C(=O)N2CCC(CCF)CC2)C1` showed a pKi of 7.41. The molecule further gave an APTT in data set [2] of 13.7 µM.
As for `CCOC(=O)c1cc2c(c(S(=O)(=O)N[C@@H](Cc3nc4ccccc4s3)C(=O)N3CCC(CCF)CC3)c1)NCC(C)(C)C2`, the APTT in [2] came out at 105.4 µM.
As for `CC1(C)CNc2c(cc(CCC(=O)N3CCN(CC(=O)N4CCOCC4)CC3)cc2S(=O)(=O)N[C@@H](Cc2nc3ccccc3s2)C(=O)N2CCC(CCF)CC2)C1` [listing 2 of 2 here], the results for the inhibition in vivo at 20 mg/kg in data set [11], in [13] and in data set [14] were 43%, 60% and 48%, respectively. The molecule further returned an inhibition in vivo at 10 mg/kg in data set [12] of 60%.
In turn, `CNC(=O)OCc1cc2c(c(S(=O)(=O)N[C@@H](Cc3nc4ccccc4s3)C(=O)N3CCC(CCF)CC3)c1)NCC(C)(C)C2` had a pKi in [1] of 7.11. In data set [2], the APTT came out at 20.7 µM.
In [1], `CC1(C)CNc2c(cccc2S(=O)(=O)N[C@@H](CCCN=C(N)N)C(=O)N2CCC(CCF)CC2)C1` [CGH-728] showed a negative-log Ki (pKi) of 8.22. The APTT in data set [2] was 2.1 µM.
As for `CC1(C)CNc2c(cc(CCC(=O)O)cc2S(=O)(=O)N[C@@H](Cc2nc3ccccc3s2)C(=O)N2CCC(CCF)CC2)C1`, in [1], the pKi was 7.09. Moreover, the bioavailability in [3] turned out to be 50%; in data set [4], 0%. The same molecule yielded an APTT in [2] of 10.7 µM. Also, the concentration in solution in [7] (solubility) was 5.15 µg/mL (≈ 8.16 µM).
`CN(C)C(=O)CCc1cc2c(c(S(=O)(=O)N[C@@H](Cc3nc4ccccc4s3)C(=O)N3CCC(CCF)CC3)c1)NCC(C)(C)C2` gave a pKi in data set [1] of 7.47. The APTT in data set [2] came to 9.2 µM.
As to `CC1(C)CNc2c(cc(CCNC(N)=O)cc2S(=O)(=O)N[C@@H](Cc2nc3ccccc3s2)C(=O)N2CCC(CCF)CC2)C1`, the pKi in data set [1] is 7.33. The APTT in [2] was 10.2 µM.
In the same order, the values of `COCCOCOCc1cc2c(c(S(=O)(=O)N[C@@H](Cc3nc4ccccc4s3)C(=O)N3CCC(CCF)CC3)c1)NCC(C)(C)C2` are 6.90 and 18 µM.
In [2], `CC1(C)CNc2c(cccc2S(=O)(=O)N[C@@H](Cc2nc3ccccc3s2)C(=O)N2CCC(CCF)CC2)C1` had an APTT of 26.5 µM.
In the case of `CC(=O)N1CCN(C(=O)CCc2cc3c(c(S(=O)(=O)N[C@@H](Cc4nc5ccccc5s4)C(=O)N4CCC(CCF)CC4)c2)NCC(C)(C)C3)CC1`, the pKi in data set [1] was 7.47. Also, the APTT in [2] came out at 7.5 µM.
